From patent publication US20080146570A1, “Chemical Compounds” (ASTRAZENECA AB, priority 2005, published 2008)

Molecular target: T1, human recombinant, purified wild type His-B-Raf protein kinase (Homo sapiens, UniProt P15056)
T1 construct: His
Test: B-Raf In Vitro ELISA Assay
Assay type: biochemical
Details: ELISA of MEK1 phosphorylation; 2.5 nM B-Raf, 10 μM ATP; 1 hour preincubation at 25° C.
Procedure: B-Raf In Vitro ELISA Assay
Activity of human recombinant, purified wild type His-B-Raf protein kinase was determined in vitro using an enzyme-linked immunosorbent assay (ELISA) assay format, which measures phosphorylation of the B-Raf substrate, human recombinant, purified His-derived (detagged) MEK1. The reaction utilized 2.5 nM B-Raf, 0.15 μM […] and 10 μM adenosine triphosphate (ATP) in 40 mM N-(2-hydroxyethyl)piperazine-N′-(2-ethanesulfonic acid hemisodium salt (HEPES), 5 mM 1,4-dithio-DL-threitol (DTT), 10 mM MgCl2, 1 mM ethylenediaminetetraacetic acid (EDTA) and 0.2 M NaCl (1×HEPES buffer), with or without compound at various concentrations, in a total reaction volume of 25 μl in 384 well plates. B-Raf and compound were preincubated in 1×HEPES buffer for 1 hour at 25° C. Reactions were initiated with addition of MEK1 and ATP in 1×HEPES buffer and incubated at 25° C. for 50 minutes and reactions stopped by addition of 10 μl 175 mM EDTA (final concentration 50 mM) in 1×HEPES buffer. 5 μl of the assay mix was then diluted 1:20 into 50 mM EDTA in 1×HEPES buffer, transferred to 384 well black high protein binding plates and incubated overnight at 4° C. […] Blue fluorescent product was detected at excitation 325 and emission 420 using a TECAN Ultra plate reader. Data was graphed and IC50s calculated using Excel Fit (Microsoft).

T1 sequence (P15056 whole entry): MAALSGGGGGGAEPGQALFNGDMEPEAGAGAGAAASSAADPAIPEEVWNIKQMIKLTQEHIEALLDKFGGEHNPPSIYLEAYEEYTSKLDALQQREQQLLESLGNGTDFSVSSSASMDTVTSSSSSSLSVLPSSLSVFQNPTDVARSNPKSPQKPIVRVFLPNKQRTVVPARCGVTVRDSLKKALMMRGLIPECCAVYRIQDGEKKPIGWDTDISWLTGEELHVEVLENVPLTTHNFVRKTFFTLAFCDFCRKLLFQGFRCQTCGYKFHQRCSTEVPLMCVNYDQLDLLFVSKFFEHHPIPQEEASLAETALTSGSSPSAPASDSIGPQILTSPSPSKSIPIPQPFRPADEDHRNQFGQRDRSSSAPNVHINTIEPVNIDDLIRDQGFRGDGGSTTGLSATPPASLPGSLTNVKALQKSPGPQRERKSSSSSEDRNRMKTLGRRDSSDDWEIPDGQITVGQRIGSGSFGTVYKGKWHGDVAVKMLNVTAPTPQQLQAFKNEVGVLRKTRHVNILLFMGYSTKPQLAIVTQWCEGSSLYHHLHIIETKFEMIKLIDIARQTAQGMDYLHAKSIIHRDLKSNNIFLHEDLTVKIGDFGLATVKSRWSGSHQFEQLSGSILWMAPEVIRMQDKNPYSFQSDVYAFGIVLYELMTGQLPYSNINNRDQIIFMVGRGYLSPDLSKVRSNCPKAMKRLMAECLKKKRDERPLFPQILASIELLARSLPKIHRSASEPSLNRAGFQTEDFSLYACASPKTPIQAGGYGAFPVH

SMILES | IC50 [nM]
Cc1ccc(NC(=O)c2cccc(C(C)(C)C#N)c2)cc1Nc1cc(NC2CC2)nc(-c2cccnc2)n1 [Example 4, 3-(Cyano-dimethyl-methyl)-N-[3-(6-cyclopropylamino-2-pyridin-3-yl-pyrimidin-4-ylamino)-4-methyl-phenyl]benzamide] | 1350
Cc1ccc(NC(=O)c2cccc(C(C)(C)C#N)c2)cc1Nc1ccnc(-c2cccnc2)n1 [Example 2, 3-(1-Cyano-1-methylethyl)-N-{4-methyl-3-[(2-pyridin-3-ylpyrimidin-4-yl)amino]phenyl}benzamide] | 153
